Inconclusive results are not listed. Active and inactive are the calls of the source.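 Rule for the calls: active = compounds lowering the viability dye signal with a fitted AC50 within twice the top dose in all three time points; inconclusive = time points disagree in their calls; inactive = inactive at every time point, including signal rises.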
Legend:
[1] = tested on: C2C12 mouse myoblast viability, Alamar Blue, 8/24/48 h; assay: C2C12 mouse myoblast viability loss, dose response, cytotoxicity control for HRAS target identification, cell-based, Alamar Blue fluorescence, 8/24/48 h, dry powder (AID 720601)
[2] = as above; conditions: C2C12 mouse myoblast viability, Alamar Blue, 8/24/48 h, at 35 µM, stronger effect = lower value

Structure (SMILES) | AC50 [1] | activity ([2]; 8 h viability change) [%] | activity ([2]; 24 h viability change) [%]
CCC(=O)N(c1ccc(OC)c(Cl)c1)C(C(=O)NCCc1ccccc1)c1cccs1 (stereo not given) | > 70 µM (inactive) | 0.483 | -13.2
Cc1onc(C(=O)N2CCN(C(c3ccncc3)c3ccncc3)CC2)c1[N+](=O)[O-] |  | -0.518 | -6.22
